Measurements as given in the supplement of paper PMC4862054.

Experiments:
Conditions in all cases: incubation time: 72 h
HCC1143 [1] = assay: normalised viability (% of control), CellTiter-Blue; higher = more viable cells (100 = DMSO, 0 = benzethonium chloride kill control)
Experimental: (§1)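 DSRT, CellTiter-Blue viability, 72 h incubation. Signal is normalised to DMSO and benzethonium chloride controls. Value is the normalised response at dose 1.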

CAL-120 [2] = assay: as above
Experimental: as §1

HDQ-P1 [3] = assay: as above
Experimental: as §1

SK-BR-3 [4] = assay: as above
Experimental: as §1

MDA-MB-436 [5] = assay: as above
Experimental: as §1

HCC1599 [6] = assay: as above
Experimental: as §1

MDA-MB-453 [7] = assay: as above
Experimental: as §1

CAL-51 [8] = assay: as above
Experimental: as §1

MFM-223 [9] = assay: as above
Experimental: as §1

Hs578T [10] = assay: as above
Experimental: as §1

HCC1937 [11] = assay: as above
Experimental: as §1

MDA-MB-231 [12] = assay: as above
Experimental: as §1

BT-549 [13] = assay: as above
Experimental: as §1

CAL-148 [14] = assay: as above
Experimental: as §1

MDA-MB-468 [15] = assay: as above
Experimental: as §1

DU-4475 [16] = assay: as above
Experimental: as §1

CAL-85-1 [17] = assay: as above
Experimental: as §1

BT-474 [18] = assay: as above
Experimental: as §1

HCC1143 [19] = assay: normalised response (% of control), CellTiter-Glo; higher = more viable cells (100 = DMSO, 0 = benzethonium chloride kill control)
Outline: (§2)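 Normalised signals at single concentrations make up the values. They come from breast cancer cell lines seeded (20 µl suspension) into 384-well plates with compound at 5 concentrations in 10-fold steps over a compound-specific 10,000-fold range, incubated 72 h, and read for CellTox Green fluorescence then CellTiter-Glo luminescence. Each plate was normalised to 0.1 % DMSO (100) and a positive kill control (0).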

CAL-120 [20] = assay: as above
Outline: as §2

HDQ-P1 [21] = assay: as above
Outline: as §2

SK-BR-3 [22] = assay: as above
Outline: as §2

MDA-MB-436 [23] = assay: as above
Outline: as §2

HCC1599 [24] = assay: as above
Outline: as §2

MDA-MB-453 [25] = assay: as above
Outline: as §2

CAL-51 [26] = assay: as above
Outline: as §2

MFM-223 [27] = assay: as above
Outline: as §2

Hs578T [28] = assay: as above
Outline: as §2

HCC1937 [29] = assay: as above
Outline: as §2

MDA-MB-231 [30] = assay: as above
Outline: as §2

BT-549 [31] = assay: as above
Outline: as §2

CAL-148 [32] = assay: as above
Outline: as §2

MDA-MB-468 [33] = assay: as above
Outline: as §2

DU-4475 [34] = assay: as above
Outline: as §2

CAL-85-1 [35] = assay: as above
Outline: as §2

BT-474 [36] = assay: as above
Outline: as §2

MCF-10A = assay: as above
Outline: as §2

SMILES | normalised viability (HCC1143 [1]) [%] | normalised viability (CAL-120 [2]) [%] | normalised viability (HDQ-P1 [3]) [%] | normalised viability (SK-BR-3 [4]) [%] | normalised viability (MDA-MB-436 [5]) [%] | normalised viability (HCC1599 [6]) [%] | normalised viability (MDA-MB-453 [7]) [%] | normalised viability (CAL-51 [8]) [%] | normalised viability (MFM-223 [9]) [%] | normalised viability (Hs578T [10]) [%] | normalised viability (HCC1937 [11]) [%] | normalised viability (MDA-MB-231 [12]) [%] | normalised viability (BT-549 [13]) [%] | normalised viability (CAL-148 [14]) [%] | normalised viability (MDA-MB-468 [15]) [%] | normalised viability (DU-4475 [16]) [%] | normalised viability (CAL-85-1 [17]) [%] | normalised viability (BT-474 [18]) [%] | normalised response (HCC1143 [19]) [%] | normalised response (CAL-120 [20]) [%] | normalised response (HDQ-P1 [21]) [%] | normalised response (SK-BR-3 [22]) [%] | normalised response (MDA-MB-436 [23]) [%] | normalised response (HCC1599 [24]) [%] | normalised response (MDA-MB-453 [25]) [%] | normalised response (CAL-51 [26]) [%] | normalised response (MFM-223 [27]) [%] | normalised response (Hs578T [28]) [%] | normalised response (HCC1937 [29]) [%] | normalised response (MDA-MB-231 [30]) [%] | normalised response (BT-549 [31]) [%] | normalised response (CAL-148 [32]) [%] | normalised response (MDA-MB-468 [33]) [%] | normalised response (DU-4475 [34]) [%] | normalised response (CAL-85-1 [35]) [%] | normalised response (BT-474 [36]) [%] | normalised response (MCF-10A) [%]
Cc1ccc(-n2nc(C(C)(C)C)cc2NC(=O)Nc2ccc(OCCN3CCOCC3)c3ccccc23)cc1 [Doramapimod] (1 nM) | 97.3 | 89.9 | 64.3 | 108 | 92.2 | 99.3 | 104 | 112 | 98.8 | 101 | 87 | 102 | 99.7 | 97.8 | 105 | 105 | 100 | 112 | 98.3 | 93.3 | 93 | 79.2 | 93.8 | 81.5 | 95 | 83.7 | 92.4 | 95.5 | 97.4 | 97.9 | 107 | 88.6 | 95 | 97.6 | 91.3 | 95.5 | 78.8
COc1cc([C@@H]2c3cc4c(cc3[C@@H](O[C@@H]3O[C@@H]5CO[C@@H](C)O[C@H]5[C@H](O)[C@H]3O)[C@H]3COC(=O)[C@H]23)OCO4)cc(OC)c1O [Etoposide] (1 nM) | 107 | 98.1 | 96.3 | 97.5 | 105 | 121 | 103 | 87.8 | 100 | 97.3 | 86 | 90.8 | 96.9 | 110 | 98 | 112 | 99 | 91.5 | 110 | 101 | 105 | 109 | 128 | 107 | 106 | 134 | 107 | 105 | 98.8 | 113 | 114 | 104 | 101 | 106 | 98.6 | 103 | 110
N.N.[Cl][Pt][Cl] [Cisplatin] (1 nM) | 98.2 | 85.1 | 106 | 100 | 105 | 96.4 | 111 | 113 | 93.7 | 121 | 90.5 | 103 | 92 | 118 | 98.2 | 107 | 92.1 | 109 | 90.8 | 101 | 101 | 98.7 | 96.7 | 102 | 99.3 | 74.7 | 99.4 | 101 | 101 | 100 | 98.7 | 90.5 | 94.9 | 94.2 | 94.9 | 101 | 95.4
CCC1(c2ccc(N)cc2)CCC(=O)NC1=O (stereo unspecified) [Aminoglutethimide] (1 nM) | 109 | 110 | 92.7 | 90 | 98.2 | 95.7 | 89.7 | 86.1 | 108 | 107 | 97.3 | 85.4 | 93.2 | 107 | 97.1 | 98.7 | 115 | 91.1 | 97 | 106 | 98.4 | 103 | 87.3 | 91.7 | 98.6 | 112 | 99.8 | 96.9 | 96.2 | 110 | 106 | 108 | 104 | 99.1 | 109 | 103 | 97.8
Oc1nc(-c2ccc(C(F)(F)F)cc2)nc2c1CSCC2 [XAV-939] (1 nM) | 97.6 | 97.7 | 97.3 | 99.3 | 119 | 141 | 106 | 102 | 107 | 89.6 | 84 | 100 | 99.4 | 101 | 104 | 119 | 93.8 | 84.9 | 100 | 97.1 | 98.9 | 99.2 | 107 | 95.8 | 97.6 | 97.6 | 102 | 97.1 | 97.2 | 101 | 95.8 | 92.4 | 99.1 | 104 | 104 | 99.7 | 101
O=P1(NCCCl)OCCCN1CCCl (stereo unspecified) [Ifosfamide] (1 nM) | 88.9 | 89.7 | 119 | 98.3 | 95.2 | 109 | 107 | 110 | 93.8 | 55.3 | 87.6 | 122 | 122 | 118 | 124 | 116 | 84.3 | 86.7 | 89.7 | 92.2 | 98.1 | 93.3 | 97.8 | 94.2 | 90.3 | 78.5 | 87.2 | 98.8 | 94.8 | 97 | 102 | 99.4 | 95.3 | 93.7 | 93.9 | 94.2 | 92.1
CC1(C)NC(=O)N(c2ccc([N+](=O)[O-])c(C(F)(F)F)c2)C1=O [Nilutamide] (1 nM) | 99.5 | 86.6 | 125 | 99.1 | 123 | 85.1 | 112 | 100 | 100 | 126 | 114 | 131 | 95.1 | 103 | 108 | 115 | 96 | 95.7 | 101 | 99.1 | 101 | 111 | 102 | 109 | 105 | 93.2 | 103 | 101 | 98.4 | 97.4 | 103 | 111 | 106 | 105 | 100 | 108 | 106
Cc1ccc(C(=O)N(CCCN)[C@@H](c2oc3cc(Cl)ccc3c(=O)c2Cc2ccccc2)C(C)C)cc1 (0.1 nM) | 101 | 90.3 | 126 | 105 | 111 | 108 | 101 | 103 | 105 | 135 | 93 | 90.4 | 100 | 111 | 97.3 | 95.9 | 86.1 | 68.8 | 96.8 | 100 | 100 | 89 | 106 | 101 | 100 | 98.9 | 93.2 | 102 | 101 | 98.7 | 99.1 | 101 | 89.2 | 96 | 96 | 97.8 | 90.2
